According to the NIST ThermoML archive (doi:10.1021/je900545v):

How the values were obtained:
[1] = 298.15 K, 101 kPa, Liquid
[2] = refractive index (Na D-line) (dimensionless); xn = mol fraction of the nth substance listed; conditions: 298.15 K, 101 kPa, Liquid
[3] = xn = mol fraction of the nth substance listed; conditions: 298.15 K, 101 kPa, Liquid; for electrical conductivity: DDSJ-308A Conductometer

C=CCn1cc[n+](C)c1.[Cl-] [1-allyl-3-methylimidazolium chloride]
[1]
Conditions	mass density [kg/m3]	viscosity [mPa·s]
–	1166	821

Conditions	electrical conductivity [S/m]
[1], DDSJ-308A Conductometer	0.00695

C=CCn1cc[n+](C)c1.[Cl-] [1-allyl-3-methylimidazolium chloride] + O
Conditions	electrical conductivity, [3] [S/m]	mass density, [3] [kg/m3]	refractive index, [2]	viscosity, [3] [mPa·s]
x1 = 0.000171	0.0795	1005	1.3329	0.8974
x1 = 0.000362	0.169	1007.5	1.333	0.8946
x1 = 0.000553	0.258	1001	1.3333	0.8979
x1 = 0.000754	0.345	1004.5	1.3336	0.8954
x1 = 0.001151	0.503	1004	1.334	0.9008
x1 = 0.001575	0.665	1004.7	1.3346	0.9038
x1 = 0.002478	0.969	1003	1.336	0.9234
x1 = 0.003359	1.24	1004.2	1.3375	0.9356
x1 = 0.004859	1.65	1005	1.34	0.9802
x1 = 0.006386	2.66	1006	1.3421	0.9919
x1 = 0.008102	3.02	1007.6	1.3452	1.043
x1 = 0.009949	3.29	1008.5	1.347	1.061
x1 = 0.01179	3.69	1011.6	1.3495	1.093
x1 = 0.01373	3.94	1016.5	1.352	1.129
x1 = 0.01765	4.65	1017.2	1.3574	1.193
x1 = 0.02156	5.33	1021.8	1.3635	1.252
x1 = 0.02565	5.97	1024	1.3676	1.322
x1 = 0.02973	6.23	1026	1.373	1.394
x1 = 0.03394	7.15	1029.2	1.3775	1.473
x1 = 0.04442	6.83	1040	1.3888	1.677
x1 = 0.05536	7.66	1046.8	1.3995	1.9
x1 = 0.06646	7.92	1054.2	1.4084	2.166
x1 = 0.07857	7.47	1061.8	1.4176	2.475
x1 = 0.09138	7.2	1073	1.4315	3.118
x1 = 0.1143	6.48	1084.1	1.4464	3.867
x1 = 0.1369	5.67	1092	1.4574	4.806
x1 = 0.1616	4.92	1100	1.4673	5.974
x1 = 0.1867	4.13	1105.8	1.4742	7.441
x1 = 0.211	3.91	1110.2	1.4831	7.9
x1 = 0.2245	3.82	1108.9	–	8.518
x1 = 0.3233	2.63	1127.8	–	18
x1 = 0.5083	0.00974	1132.8	–	48
x1 = 1	0.00695	1166	–	821
